Where no end group is shown, it is not given here.
Columns and labels:
[1] = MTT viability of fibroblasts over three days; type: cell-based, human; details: human, adult fibroblasts (HDFa cells)
Method: (§1) MTT assay: Cell viability and proliferation is widely assessed by the MTT assay as already described previously.
The fibroblasts cells, Neonatal (HDFn) and Adult (HDFa), were both grown until greater than 80% confluent. […] After 24 hour incubation the culture medium was replaced with fresh medium containing an appropriate amount of the peptide for investigation.
The viability of the fibroblasts, Adult (HDFa) and Neonatal (HDFn) cells in the presence of surfactants was tested by MTT assay over three days relative to control wells containing cells only.

in vitro = type: cell-based; details: human, neonatal fibroblasts (HDFn cells)
Method: as §1
The fibroblasts cells, Neonatal (HDFn) and Adult (HDFa), were both grown until greater than 80% confluent. The cells were then harvested and seeded into micro well plate at cell densities of 5000 cells/well in a volume […] of medium. After 24 hour incubation the culture medium was replaced with fresh medium containing an appropriate amount of the peptide for investigation.

| Substance | viability at 24 h, 5 µM [1] | viability at 24 h, 25 µM [1] | viability at 24 h, 50 µM [1] | viability at 24 h, 100 µM [1] | viability at 48 h, 5 µM [1] | viability at 48 h, 25 µM [1] | viability at 48 h, 50 µM [1] | viability at 48 h, 100 µM [1] | viability at 72 h, 5 µM [1] | viability at 72 h, 25 µM [1] | viability at 72 h, 50 µM [1] | viability at 72 h, 100 µM [1] | viability at 24 h, 5 µM (in vitro) | viability at 24 h, 25 µM (in vitro) | viability at 24 h, 50 µM (in vitro) | viability at 24 h, 100 µM (in vitro) | viability at 48 h, 5 µM (in vitro) | viability at 48 h, 25 µM (in vitro) | viability at 48 h, 50 µM (in vitro) | viability at 48 h, 100 µM (in vitro) | further results |
| --- | --- | --- | --- | --- | --- | --- | --- | --- | --- | --- | --- | --- | --- | --- | --- | --- | --- | --- | --- | --- | --- |
| GIKKKIIKKIIKII-NH2 [GIK, GIK(KKII)2 KII-NH2] | 97% | 92% | 87% | 85% | 95% | 93% | 78% | 74% | 91% | 90% | 73% | 65% | 93% | 98% | 92% | 85% | 87% | 84% | 81% | 78% | viability at 72 h, 5 µM (in vitro): 83%; viability at 72 h, 25 µM (in vitro): 78%; viability at 72 h, 50 µM (in vitro): 75%; viability at 72 h, 100 µM (in vitro): 71% |
| GIIKKIIKKI-NH2 [Helix G2, G(IIKK)2 I-NH2] | 101% | 98% | 92% | 91% | 96% | 90% | 90% | 88% | 95% | 88% | 79% | 80% |  |  |  |  |  |  |  |  |  |
| GLLKKLLKKLLKKL-NH2 [GL, G(LLKK)3 L-NH2] | 91% | 90% | 87% | 63% | 90% | 88% | 75% | 57% | 87% | 74% | 46% | 11% | 98% | 88% | 85% | 80% | 87% | 84% | 74% | 65% | viability at 72 h, 5 µM (in vitro): 83%; viability at 72 h, 25 µM (in vitro): 81%; viability at 72 h, 50 µM (in vitro): 67%; viability at 72 h, 100 µM (in vitro): 35% |

Source: patent US9745348B2 (The University of Manchester, priority 2011, dated 2017)
